pIC50: −log10 of the molar value.
Tests used:
Human plasma kallikrein = Human plasma kallikrein (Homo sapiens (Human), UniProt P03952); test: Determination of the IC50 for plasma kallikrein (fluorogenic substrate H-DPro-Phe-Arg-AFC); type: biochemical; settings: 37° C., read-out: IC50 (human PKaI)
Experimental: Determination of the IC50 for Plasma Kallikrein
(§1) Human plasma kallikrein (Protogen) was incubated at 37° C. with the fluorogenic substrate H-DPro-Phe-Arg-AFC and various concentrations of the test compound. Residual enzyme activity (initial rate of reaction) was determined by measuring the change in […] at 410 nm and the IC50 value for the test compound was determined.

Human KLK1 = Human KLK1 (Homo sapiens (Human), UniProt P06870); test: Determination of the IC50 for KLK1 (fluorogenic substrate H-DVal-Leu-Arg-AFC); type: biochemical; settings: 37° C.
Experimental: Determination of the IC50 for KLK1
as §1, with “KLK1 (Callbiochem)” for “plasma kallikrein (Protogen)”, “H-DVal-Leu-Arg-AFC” for “H-DPro-Phe-Arg-AFC”

Sequence of Human plasma kallikrein (P03952 391-638): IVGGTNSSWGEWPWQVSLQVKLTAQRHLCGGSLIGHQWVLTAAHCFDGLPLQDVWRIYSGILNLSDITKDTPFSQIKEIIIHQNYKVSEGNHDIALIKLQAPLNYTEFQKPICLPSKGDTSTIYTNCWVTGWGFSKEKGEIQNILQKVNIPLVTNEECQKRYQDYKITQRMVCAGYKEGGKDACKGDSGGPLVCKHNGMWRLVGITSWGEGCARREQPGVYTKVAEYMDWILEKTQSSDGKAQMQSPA
Sequence of Human plasma kallikrein (P03952 20-390 partner): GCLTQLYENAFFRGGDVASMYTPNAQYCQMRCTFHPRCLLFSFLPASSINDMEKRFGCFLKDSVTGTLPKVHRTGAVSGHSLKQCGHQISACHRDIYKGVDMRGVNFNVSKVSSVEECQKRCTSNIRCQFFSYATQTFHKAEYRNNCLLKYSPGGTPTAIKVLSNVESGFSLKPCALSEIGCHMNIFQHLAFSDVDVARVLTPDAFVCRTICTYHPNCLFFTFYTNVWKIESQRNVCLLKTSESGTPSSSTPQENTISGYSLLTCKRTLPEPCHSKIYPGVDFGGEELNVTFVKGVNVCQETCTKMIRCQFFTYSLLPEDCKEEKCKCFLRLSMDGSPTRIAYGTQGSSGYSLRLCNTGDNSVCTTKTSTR
Sequence of Human KLK1 (P06870 25-262): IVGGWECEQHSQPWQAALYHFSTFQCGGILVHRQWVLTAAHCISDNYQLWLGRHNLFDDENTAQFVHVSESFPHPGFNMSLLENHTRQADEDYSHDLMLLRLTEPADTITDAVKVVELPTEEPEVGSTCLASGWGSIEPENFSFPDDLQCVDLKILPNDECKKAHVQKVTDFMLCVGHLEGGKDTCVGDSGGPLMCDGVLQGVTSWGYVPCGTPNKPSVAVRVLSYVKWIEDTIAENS

Structure (SMILES)	pIC50 (Human plasma kallikrein)	pIC50 (Human KLK1)
N#Cc1cnn(Cc2ccc(Cn3cc(C(=O)NCc4ccc5c(N)nccc5c4)c(C(F)(F)F)n3)cc2)c1 [Example 77, 1-[4-(4-Cyano-pyrazol-1-ylmethyl)-benzyl]-3-trifluoromethyl-1H-pyrazole-4-carboxylic acid (1-amino-isoquinolin-6-ylmethyl)-amide]	7.07	< 5.00
CCOc1ccc(Cn2cc(C(=O)NCc3ccc4c(N)nccc4c3)c(NC(=O)COC)n2)cn1 [Example 27, 1-(6-Ethoxy-pyridin-3-ylmethyl)-3-(2-methoxy-acetylamino)-1H-pyrazole-4-carboxylic acid (1-amino-isoquinolin-6-ylmethyl)-amide]	6.89	5.49
Cc1cnn(Cc2ccc(Cn3cc(C(=O)NCc4c(C)nc5[nH]ccc5c4C)c(C4CC4)n3)cc2)c1 [Example 122, 3-Cyclopropyl-1-[4-(4-methyl-pyrazol-1-ylmethyl)-benzyl]-1H-pyrazole-4-carboxylic acid (4,6-dimethyl-1H-pyrrolo[2,3-b]pyridin-5-ylmethyl)-amide]	7.00	< 5.00
Cc1cc(C(=O)NCc2cnc3[nH]ccc3c2)c(C)n1Cc1csc(-c2ccccc2)n1 [Example 3, 2,5-Dimethyl-1-(2-phenyl-thiazol-4-ylmethyl)-1H-pyrrole-3-carboxylic acid (1H-pyrrolo[2,3-b]pyridin-5-ylmethyl)-amide]	5.57	< 5.00
CCOc1ncc(Cn2cc(C(=O)NCc3ccc4c(N)nccc4c3)c(C(F)(F)F)n2)cc1F [Example 75, 1-(6-Ethoxy-5-fluoro-pyridin-3-ylmethyl)-3-trifluoromethyl-1H-pyrazole-4-carboxylic acid (1-amino-isoquinolin-6-ylmethyl)-amide]	7.01	5.89

Stronger by pIC50 (Human plasma kallikrein), values ahead:

pIC50 (Human plasma kallikrein)	pIC50 (Human KLK1)	Structure (SMILES)
7.12	< 5.00	Nc1nccc2cc(CNC(=O)c3cn(Cc4ccc(Oc5ccccc5)nc4)nc3C3CC3)ccc12 [Example 93, 3-Cyclopropyl-1-(6-phenoxy-pyridin-3-ylmethyl)-1H-pyrazole-4-carboxylic acid (1-amino-isoquinolin-6-ylmethyl)-amide]
7.20	5.50	CCOc1ccc(Cn2cc(C(=O)NCc3ccc4c(N)nccc4c3)c(N)n2)cn1 [Example 98, 3-Amino-1-(6-ethoxy-pyridin-3-ylmethyl)-1H-pyrazole-4-carboxylic acid (1-amino-isoquinolin-6-ylmethyl)-amide]
7.84	< 5.00	Cc1cnn(Cc2ccc(Cn3c(C)cc(C(=O)NCc4ccc5c(N)nccc5c4)c3C)cc2)c1 [Example 9, 2,5-Dimethyl-1-[4-(4-methyl-pyrazol-1-ylmethyl)-benzyl]-1H-pyrrole-3-carboxylic acid (1-amino-isoquinolin-6-ylmethyl)-amide]
8.27	< 5.00	O=C(NCc1cnc2[nH]ccc2c1)c1cn(Cc2ccc(Cn3ccccc3=O)cc2)nc1C(F)(F)F [Example 7, 1-[4-(2-Oxo-2H-pyridin-1-ylmethyl)-benzyl]-3-trifluoromethyl-1H-pyrazole-4-carboxylic acid (1H-pyrrolo[2,3-b]pyridin-5-ylmethyl)-amide]
8.38	5.46	Nc1nn(Cc2ccc(N3CCCC3)nc2)cc1C(=O)NCc1ccc2c(N)nccc2c1 [Example 99, 3-Amino-1-(6-pyrrolidin-1-yl-pyridin-3-ylmethyl)-1H-pyrazole-4-carboxylic acid (1-amino-isoquinolin-6-ylmethyl)-amide]
9.05	< 5.00	Cc1cnn(Cc2ccc(Cn3cc(C(=O)NCc4ccc5c(N)nccc5c4)c(-c4c(C)noc4C)n3)cc2)c1 [Example 20, 3-(3,5-Dimethyl-isoxazol-4-yl)-1-[4-(4-methyl-pyrazol-1-ylmethyl)-benzyl]-1H-pyrazole-4-carboxylic acid (1-amino-isoquinolin-6-ylmethyl)-amide]

Source: patent US9533987B2, “Heterocyclic derivates” (KALVISTA PHARMACEUTICALS LIMITED, priority 2013, dated 2017)
